In patent publication US20090252703A1, “Use of alcohol co-solvents to improve pegylation reaction yields” (priority 2006, published 2009):

Assay: solubility of CGRP peptides in aqueous conjugation buffer
Type: physicochemical
Details: aqueous conjugation buffers used for coupling vehicle to the peptide
Text: Co-solvent mediated conjugation of vehicle to CGRP peptide antagonists.

solubility in aqueous buffer medium (in words) | Structure (SMILES)
relatively insoluble | CC(=O)N[C@@H](Cc1c[nH]c2ccccc12)C(=O)N[C@H](C(=O)N[C@H](C(=O)N[C@@H](Cc1cnc[nH]1)C(=O)N[C@@H](CCCNC(N)=O)C(=O)N[C@@H](CC(C)C)C(=O)N[C@@H](C)C(=O)NCC(=O)N[C@@H](CC(C)C)C(=O)N[C@@H](CC(C)C)C(=O)N[C@@H](CO)C(=O)N[C@@H](CCCNC(N)=O)C(=O)N[C@@H](CO)C(=O)NCC(=O)NCC(=O)N[C@H](C(=O)N[C@H](C(=O)N[C@@H](CCCCNC(=N)N)C(=O)N[C@@H](CCCCN)C(=O)N[C@@H](CC(N)=O)C(=O)N[C@@H](Cc1ccccc1)C(=O)N[C@H](C(=O)N1CCC[C@H]1C(=O)N[C@H](C(=O)N[C@@H](CC(=O)O)C(=O)N[C@H](C(=O)NCC(=O)N1CCC[C@H]1C(=O)N[C@@H](Cc1ccccc1)C(=O)N[C@@H](C)C(=O)N[C@@H](Cc1ccccc1)C(N)=O)C(C)C)[C@@H](C)O)C(C)C)C(C)C)C(C)C)[C@@H](C)O)C(C)C [SEQ ID NO:2]
relatively insoluble | CC(=O)N[C@@H](Cc1c[nH]c2ccccc12)C(=O)N[C@H](C(=O)N[C@H](C(=O)N[C@@H](Cc1cnc[nH]1)C(=O)N[C@@H](CCCNC(N)=O)C(=O)N[C@@H](CC(C)C)C(=O)N[C@@H](C)C(=O)NCC(=O)N[C@@H](CC(C)C)C(=O)N[C@@H](CC(C)C)C(=O)N[C@@H](CO)C(=O)N[C@@H](CCCNC(N)=O)C(=O)N[C@@H](CO)C(=O)NCC(=O)NCC(=O)N[C@H](C(=O)N[C@H](C(=O)N[C@@H](CCCCNC(=N)N)C(=O)N[C@@H](CCCCN)C(=O)N[C@@H](CC(N)=O)C(=O)N[C@@H](Cc1ccccc1)C(=O)N[C@H](C(=O)N1CCC[C@H]1C(=O)N[C@H](C(=O)N[C@@H](CC(=O)O)C(=O)N[C@H](C(=O)NCC(=O)N1C2CCCCC2C[C@H]1C(=O)N[C@@H](Cc1ccccc1)C(=O)N[C@@H](C)C(=O)N[C@@H](Cc1ccccc1)C(N)=O)C(C)C)[C@@H](C)O)C(C)C)C(C)C)C(C)C)[C@@H](C)O)C(C)C (stereo partly drawn) [SEQ ID NO:3]
relatively soluble | CC(=O)N[C@@H](Cc1c[nH]c2ccccc12)C(=O)N[C@H](C(=O)N[C@H](C(=O)N[C@@H](Cc1cnc[nH]1)C(=O)N[C@@H](CCCN=C(N)N)C(=O)N[C@@H](CC(C)C)C(=O)N[C@@H](C)C(=O)NCC(=O)N[C@@H](CC(C)C)C(=O)N[C@@H](CC(C)C)C(=O)N[C@@H](CO)C(=O)N[C@@H](CCCN=C(N)N)C(=O)N[C@@H](CO)C(=O)NCC(=O)NCC(=O)N[C@H](C(=O)N[C@H](C(=O)N[C@@H](CCCN=C(N)N)C(=O)N[C@@H](CCCCN)C(=O)N[C@@H](CC(N)=O)C(=O)N[C@@H](Cc1ccccc1)C(=O)N[C@H](C(=O)N1CCC[C@H]1C(=O)N[C@H](C(=O)N[C@@H](CC(=O)O)C(=O)N[C@H](C(=O)NCC(=O)N1CCC[C@H]1C(=O)N[C@@H](Cc1ccccc1)C(=O)N[C@@H](C)C(=O)N[C@@H](Cc1ccccc1)C(N)=O)C(C)C)[C@@H](C)O)C(C)C)C(C)C)C(C)C)[C@@H](C)O)C(C)C [SEQ ID NO:7]
